From ChEMBL document CHEMBL1201862, “PubChem BioAssay data set” (2004)
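These data come from cells grown in 96-well plates and exposed to compound for 48 hours at five concentrations. GI50: concentration for 50% inhibition of growth.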 Calls of active or inactive are those of the source. Rule as the data show it: active = GI50 up to about 1.1 µM and inactive = higher. Where a SMILES comes first, the peptide text is derived from it. [ ]: non-standard residue; d: D form. pGlu = O=C1CC[CH](C(=O)O)N1

Experiments:
Experiment in all cases: inhibition of tumour cell growth, NCI panel, 48 h
[1] = system: UACC-257
[2] = system: Hs-578T
[3] = system: 786-0
[4] = system: T47D
[5] = system: OVCAR-5
[6] = system: PC-3
[7] = system: SF-539
[8] = system: SK-OV-3
[9] = system: NCI-H226
[10] = system: OVCAR-4
[11] = system: TK-10
[12] = system: M14
[13] = system: A549
[14] = system: UACC-62
[15] = system: SNB-19
[16] = system: KM12
[17] = system: DU-145
[18] = system: HL-60
[19] = system: HT-29
[20] = system: HCT-116
[21] = system: CCRF-CEM
[22] = system: K562
[23] = system: HCC 2998
[24] = system: SF-295
[25] = system: OVCAR-8
[26] = system: NCI/ADR-RES
[27] = system: NCI-H23
[28] = system: A498
[29] = system: COLO 205
[30] = system: ACHN
[31] = system: SN12C
[32] = system: NCI-H460
[33] = system: HOP-92
[34] = system: IGROV-1
[35] = system: EKVX
[36] = system: Malme-3M
[37] = system: BT-549
[38] = system: LOX IMVI
[39] = system: SF-268
[40] = system: RPMI-8226
[41] = system: NCI-H522
[42] = system: CAKI-1
[43] = system: MDA-N
[44] = system: SK-MEL-2
[45] = system: RXF 393
[46] = system: MDA-MB-435
[47] = system: OVCAR-3
[48] = system: SK-MEL-28
[49] = system: HOP-62
[50] = system: MDA-MB-231
[51] = system: SNB-75
[52] = system: HCT-15
[53] = system: SK-MEL-5
[54] = system: MCF7
[55] = system: SR
[56] = system: SW-620
[57] = system: U-251
[58] = system: MOLT-4
[59] = system: UO-31

With `C=C1C(=O)OC2/C=C(/C)C(OC(C)=O)CC(O)/C(C)=C\C(OC(=O)/C(C)=C\C)C12` (stereo unspecified) the GI50 [1] was > 100 µM (inactive), the GI50 [2] was > 100 µM (inactive) and the GI50 [3] was 17.1 µM (inactive). For the same molecule, the GI50 [4] was 52.6 µM (inactive), the GI50 [5] was > 100 µM (inactive) and the GI50 [6] was > 100 µM (inactive). The GI50 [7] was > 100 µM (inactive), the GI50 [8] was > 100 µM (inactive) and the GI50 [9] was > 100 µM (inactive). The GI50 [10] was > 100 µM (inactive), the GI50 [11] was > 100 µM (inactive) and the GI50 [12] was 53.6 µM (inactive). For the same molecule, the GI50 [13] was > 100 µM (inactive), the GI50 [14] was > 100 µM (inactive) and the GI50 [15] was > 100 µM (inactive). The GI50 [16] was > 100 µM (inactive), the GI50 [17] was 53.8 µM (inactive) and the GI50 [18] was 17 µM (inactive). The GI50 [19] was 66.1 µM (inactive), the GI50 [20] was 18.2 µM (inactive) and the GI50 [21] was 28.6 µM (inactive). For the same molecule, the GI50 [22] was 35.2 µM (inactive), the GI50 [23] was > 100 µM (inactive) and the GI50 [24] was > 100 µM (inactive). For the same molecule, the GI50 [25] was 35.3 µM (inactive), the GI50 [26] was 58.9 µM (inactive) and the GI50 [27] was > 100 µM (inactive). For the same molecule, the GI50 [28] was > 100 µM (inactive), the GI50 [29] was 34.4 µM (inactive) and the GI50 [30] was 42.8 µM (inactive). For the same molecule, the GI50 [31] was 50.6 µM (inactive), the GI50 [32] was > 100 µM (inactive) and the GI50 [33] was 43.6 µM (inactive). For the same molecule, the GI50 [34] was > 100 µM (inactive), the GI50 [35] was 78 µM (inactive) and the GI50 [36] was 14.3 µM (inactive). For the same molecule, the GI50 [37] was 53.5 µM (inactive), the GI50 [38] was 28.5 µM (inactive) and the GI50 [39] was > 100 µM (inactive). For the same molecule, the GI50 [40] was 38.7 µM (inactive), the GI50 [41] was 10.6 µM (inactive) and the GI50 [42] was 30.5 µM (inactive). The GI50 [43] was 48.1 µM (inactive), the GI50 [44] was > 100 µM (inactive) and the GI50 [45] was 51.9 µM (inactive). The GI50 [46] was 81.8 µM (inactive), the GI50 [47] was 46.6 µM (inactive) and the GI50 [48] was 43.2 µM (inactive). The GI50 [49] was > 100 µM (inactive), the GI50 [50] was > 100 µM (inactive) and the GI50 [51] was > 100 µM (inactive). For the same molecule, the GI50 [52] was 36.6 µM, the GI50 [53] was > 100 µM (inactive) and the GI50 [54] was 34 µM (inactive). The GI50 [55] was 26.7 µM (inactive), the GI50 [56] was 25.8 µM (inactive) and the GI50 [57] was > 100 µM (inactive). For the same molecule, the GI50 [58] was 29.6 µM (inactive).
With `C=C(C)[C@@H]1CCC2=C[C@H](CC(C)=CC3=CC(C)=C(O3)[C@@H]1OC)OC2=O` the GI50 [1] was > 100 µM (inactive), the GI50 [2] was 33.6 µM (inactive) and the GI50 [4] was > 100 µM (inactive). The GI50 [5] was > 100 µM (inactive), the GI50 [6] was 83.8 µM (inactive) and the GI50 [7] was 77.3 µM (inactive). The GI50 [9] was 73.8 µM (inactive), the GI50 [10] was > 100 µM (inactive) and the GI50 [11] was 85.3 µM (inactive). For the same molecule, the GI50 [12] was 41.5 µM (inactive), the GI50 [13] was > 100 µM (inactive) and the GI50 [14] was 29.7 µM (inactive). The GI50 [15] was 37.2 µM (inactive), the GI50 [16] was > 100 µM (inactive) and the GI50 [17] was > 100 µM (inactive). The GI50 [18] was > 100 µM (inactive), the GI50 [21] was > 100 µM (inactive) and the GI50 [22] was > 100 µM (inactive). The GI50 [23] was > 100 µM (inactive), the GI50 [24] was 21 µM (inactive) and the GI50 [25] was 40.7 µM (inactive). For the same molecule, the GI50 [26] was 90.4 µM (inactive), the GI50 [28] was 53.6 µM (inactive) and the GI50 [29] was > 100 µM (inactive). The GI50 [30] was 76.6 µM (inactive), the GI50 [31] was > 100 µM (inactive) and the GI50 [32] was > 100 µM (inactive). For the same molecule, the GI50 [33] was 33.3 µM (inactive), the GI50 [59] was > 100 µM (inactive) and the GI50 [34] was > 100 µM (inactive). The GI50 [35] was 59.2 µM (inactive), the GI50 [36] was > 100 µM (inactive) and the GI50 [37] was 51.6 µM (inactive). The GI50 [39] was 33.7 µM (inactive), the GI50 [40] was > 100 µM (inactive) and the GI50 [41] was > 100 µM (inactive). The GI50 [42] was > 100 µM (inactive), the GI50 [43] was > 100 µM (inactive) and the GI50 [44] was 20.9 µM (inactive). The GI50 [45] was 23.8 µM (inactive), the GI50 [46] was > 100 µM (inactive) and the GI50 [47] was > 100 µM (inactive). For the same molecule, the GI50 [48] was > 100 µM (inactive), the GI50 [50] was 29.5 µM (inactive) and the GI50 [51] was 63.5 µM (inactive). The GI50 [52] was > 100 µM, the GI50 [53] was > 100 µM (inactive) and the GI50 [54] was 38.8 µM (inactive). The GI50 [55] was > 100 µM (inactive), the GI50 [56] was > 100 µM (inactive) and the GI50 [57] was 33.1 µM (inactive). For the same molecule, the GI50 [58] was > 100 µM (inactive).
`CC(NC(=O)C1CCC(=O)N1)C(=O)N1CCCC1C(N)=O` (stereo not drawn) ([pGlu]-Ala-Pro-NH2; configuration not given here) was tested, and the GI50 [2] was > 100 µM (inactive), the GI50 [3] was 61.7 µM (inactive) and the GI50 [4] was > 100 µM (inactive). The GI50 [5] was > 100 µM (inactive), the GI50 [6] was > 100 µM (inactive) and the GI50 [8] was > 100 µM (inactive). For the same molecule, the GI50 [9] was > 100 µM (inactive), the GI50 [10] was > 100 µM (inactive) and the GI50 [11] was > 100 µM (inactive). The GI50 [12] was > 100 µM (inactive), the GI50 [13] was > 100 µM (inactive) and the GI50 [14] was > 100 µM (inactive). The GI50 [15] was > 100 µM (inactive), the GI50 [16] was > 100 µM (inactive) and the GI50 [17] was > 100 µM (inactive). The GI50 [18] was > 100 µM (inactive), the GI50 [19] was > 100 µM (inactive) and the GI50 [20] was > 100 µM (inactive). For the same molecule, the GI50 [21] was > 100 µM (inactive), the GI50 [22] was > 100 µM (inactive) and the GI50 [23] was > 100 µM (inactive). The GI50 [24] was > 100 µM (inactive), the GI50 [25] was > 100 µM (inactive) and the GI50 [26] was > 100 µM (inactive). The GI50 [27] was > 100 µM (inactive), the GI50 [28] was 31.5 µM (inactive) and the GI50 [29] was > 100 µM (inactive). The GI50 [30] was > 100 µM (inactive), the GI50 [31] was > 100 µM (inactive) and the GI50 [32] was > 100 µM (inactive). For the same molecule, the GI50 [33] was > 100 µM (inactive), the GI50 [59] was > 100 µM (inactive) and the GI50 [34] was > 100 µM (inactive). The GI50 [35] was > 100 µM (inactive), the GI50 [36] was > 100 µM (inactive) and the GI50 [37] was > 100 µM (inactive). The GI50 [38] was > 100 µM (inactive), the GI50 [39] was > 100 µM (inactive) and the GI50 [40] was > 100 µM (inactive). The GI50 [41] was > 100 µM (inactive), the GI50 [42] was > 100 µM (inactive) and the GI50 [43] was > 100 µM (inactive). The GI50 [45] was > 100 µM (inactive), the GI50 [46] was > 100 µM (inactive) and the GI50 [47] was > 100 µM (inactive). The GI50 [48] was > 100 µM (inactive), the GI50 [49] was > 100 µM (inactive) and the GI50 [50] was > 100 µM (inactive). For the same molecule, the GI50 [51] was > 100 µM (inactive), the GI50 [52] was > 100 µM and the GI50 [53] was > 100 µM (inactive). The GI50 [54] was > 100 µM (inactive), the GI50 [55] was > 100 µM (inactive) and the GI50 [56] was > 100 µM (inactive). The GI50 [57] was > 100 µM (inactive) and the GI50 [58] was > 100 µM (inactive).
